The target in this assay is ATX (human His-tagged) (Homo sapiens (Human), UniProt Q13822). In words: Human ATX enzyme inhibition assay (fluorescence quenching, MR121 substrate). The class given is biochemical. The settings on record: inhibitory activity against ATX; 30 nM ATX, 1 μM MR121 substrate, 30° C. Here is the method:
Human ATX Enzyme Inhibition Assay
ATX inhibition was measured by a fluorescence quenching assay using a specifically labeled substrate analogue (MR121 substrate). To obtain this MR121 substrate, BOC and TBS protected 6-amino-hexanoic acid (R)-3-({2-[3-(2-{2-[2-(2-amino-ethoxy)-ethoxy]-ethoxy}-ethoxy)-propionylamino]-ethoxy}-hydroxy-phosphoryloxy)-2-hydroxy-propyl ester (Ferguson et al., Org Lett 2006, 8 (10), 2023) was labeled with MR121 fluorophore (CAS 185308-24-1, 1-(3-carboxypropyl)-11-ethyl-1,2,3,4,8,9,10,11-octahydro-dipyrido[3,2-b:2′,3′-i]phenoxazin-13-ium) on the free amine of the ethanolamine side and then, after deprotection, subsequently with tryptophan on the side of the aminohexanoic acid.
Assay working solutions were made as follows:
Assay buffer (50 mM Tris-HCl, 140 mM NaCl, 5 mM KCl, 1 mM CaCl2, 1 mM MgCl2, 0.01% Triton-X-100, pH 8.0;
ATX solution: ATX (human His-tagged) stock solution (1.08 mg/mL in 20 mM bicine, pH 8.5, 0.15 M NaCl, 10% glycerol, 0.3% CHAPS, 0.02% NaN3), diluted to 1.4-2.5× final concentration in assay buffer;
MR121 substrate solution: MR121 substrate stock solution (800 μM MR121 substrate in DMSO), diluted to 2-5× final concentration in assay buffer.
Test compounds (10 mM stock in DMSO, 8 μL) were obtained in 384 well sample plates (Corning Costar #3655) and diluted with 8 μL DMSO. Row-wise serial dilutions were made by transferring 8 μL cpd solution to the next row up to […]. The compound and control solutions were mixed five times and 2 μL were transferred to 384 well assay plates (Corning Costar #3702). Then, 15 μL of 41.7 nM ATX solution was added (30 nM final concentration), mixed five times and then incubated for 15 minutes at 30° C. 10 μL of MR121 substrate solution was added (1 μM final concentration), mixed 30 times and then incubated for 15 minutes at 30° C. Fluorescence was then measured every 2 minutes for 1 hour (Perkin Elmer plate: vision multimode reader); light intensity: 2.5%; exp. time: 1.4 sec, Filter: Fluo_630/690 nm) and IC50 values were calculated from these readouts.

The text below walks through data of US10669285B2, “Condensed [1,4] diazepine compounds as autotaxin (ATX) and lysophosphatidic acid (LPA) production inhibitors” (Hoffmann-La Roche Inc., priority 2014, dated 2020).

The term IC50 denotes the concentration at which inhibition is half-maximal. High values mean weaker potency in that assay, low ones greater potency in that assay. For the compound `O=C(OCc1cccc(F)c1)N1CCc2cc(C(=O)N3CCc4[nH]nnc4C3)nn2CC1` [Example 29, 3-fluorobenzyl 2-(4,5,6,7-tetrahydro-1H-[1,2,3]triazolo[4,5-c]pyridine-5-carbonyl)-7,8-dihydro-4H-pyrazolo[1,5-d][1,4]diazepine-6(5H)-carboxylate], half-maximal inhibition (IC50) was put at 38 nM.
The figure for `COc1ccc(COC(=O)N2CCc3cc(C(=O)N4CCc5[nH]nnc5C4)nn3CC2)cc1` [Example 27, 4-methoxybenzyl 2-(4,5,6,7-tetrahydro-1H-[1,2,3]triazolo[4,5-c]pyridine-5-carbonyl)-7,8-dihydro-4H-pyrazolo[1,5-d][1,4]diazepine-6(5H)-carboxylate] is 52 nM.
To `O=C(OCc1ccc(OC(F)F)c(F)c1)N1CCc2cc(C(=O)N3CCc4[nH]nnc4C3)nn2CC1` [Example 31, 4-(difluoromethoxy)-3-fluorobenzyl 2-(4,5,6,7-tetrahydro-1H-[1,2,3]triazolo[4,5-c]pyridine-5-carbonyl)-7,8-dihydro-4H-pyrazolo[1,5-d][1,4]diazepine-6(5H)-carboxylate] belongs 22 nM.
`Cc1cc(OC(F)(F)F)ccc1COC(=O)N1CCc2cc(C(=O)N3CCc4[nH]nnc4C3)nn2CC1` [Example 39, 2-methyl-4-(trifluoromethoxy)benzyl 2-(4,5,6,7-tetrahydro-1H-[1,2,3]triazolo[4,5-c]pyridine-5-carbonyl)-7,8-dihydro-4H-pyrazolo[1,5-d][1,4]diazepine-6(5H)-carboxylate]: half-maximal inhibition (IC50) required 14 nM.
As for `COc1ccc(COC(=O)N2CCc3cc(C(=O)N4CCc5[nH]nnc5C4)nn3CC2)cc1F` [Example 32, 3-fluoro-4-methoxybenzyl 2-(4,5,6,7-tetrahydro-1H-[1,2,3]triazolo[4,5-c]pyridine-5-carbonyl)-7,8-dihydro-4H-pyrazolo[1,5-d][1,4]diazepine-6(5H)-carboxylate], it took 30 nM to reach half-maximal inhibition (IC50).
Take `O=C(OCc1ccc(F)cc1)N1CCc2cc(C(=O)N3CCc4[nH]nnc4C3)nn2CC1` [Example 28, 4-fluorobenzyl 2-(4,5,6,7-tetrahydro-1H-[1,2,3]triazolo[4,5-c]pyridine-5-carbonyl)-7,8-dihydro-4H-pyrazolo[1,5-d][1,4]diazepine-6(5H)-carboxylate]: the 50% inhibitory concentration (IC50) is 76 nM. This IC50 lies about 2.5-fold higher than the previous one.
Regarding `O=C(CCc1ccc(OC(F)(F)F)c(Cl)c1)N1CCc2nc(C(=O)N3CCc4[nH]nnc4C3)nn2CC1` [Example 23, 3-[3-chloro-4-(trifluoromethoxy)phenyl]-1-[2-(1,4,6,7-tetrahydrotriazolo[4,5-c]pyridine-5-carbonyl)-5,6,8,9-tetrahydro-[1,2,4]triazolo[1,5-d][1,4]diazepin-7-yl]propan-1-one], the half-inhibitory concentration (IC50) came to 50 nM. Against the preceding compound, the IC50 is about 1.5-fold lower.
Regarding `O=C1N[C@@H]2CCN(C(=O)c3nc4n(n3)CCN(C(=O)OCc3ccc(OC(F)(F)F)c(F)c3)CC4)C[C@H]2O1` [Example 43, 3-fluoro-4-(trifluoromethoxy)benzyl 2-((3aR,7aR)-2-oxooctahydrooxazolo[5,4-c]pyridine-5-carbonyl)-8,9-dihydro-5H-[1,2,4]triazolo[1,5-d][1,4]diazepine-7(6H)-carboxylate], half-maximal inhibition (IC50) required 56 nM.
To `O=C(/C=C/c1ccc(OC(F)F)c(F)c1)N1CCc2cc(C(=O)N3CCc4[nH]nnc4C3)nn2CC1` [Example 25, (E)-3-[4-(difluoromethoxy)-3-fluorophenyl]-1-[2-(1,4,6,7-tetrahydrotriazolo[4,5-c]pyridine-5-carbonyl)-4,5,7,8-tetrahydropyrazolo[1,5-d][1,4]diazepin-6-yl]prop-2-en-1-one] belongs 7 nM; to `COc1cc(OC(F)(F)F)ccc1COC(=O)N1CCc2cc(C(=O)N3CCc4[nH]nnc4C3)nn2CC1` [Example 38, 2-methoxy-4-(trifluoromethoxy)benzyl 2-(4,5,6,7-tetrahydro-1H-[1,2,3]triazolo[4,5-c]pyridine-5-carbonyl)-7,8-dihydro-4H-pyrazolo[1,5-d][1,4]diazepine-6(5H)-carboxylate], 21 nM; to `O=C(OCc1ccc(OC(F)(F)F)cc1F)N1CCc2cc(C(=O)N3CCc4[nH]nnc4C3)nn2CC1` [Example 4, 2-Fluoro-4-(trifluoromethoxy)benzyl 2-(4,5,6,7-tetrahydro-1H-[1,2,3]triazolo[4,5-c]pyridine-5-carbonyl)-7,8-dihydro-4H-pyrazolo[1,5-d][1,4]diazepine-6(5H)-carboxylate], 7 nM.
`O=C(OCc1ccc(OC(F)(F)F)c(Cl)c1)N1CCc2cc(C(=O)N3CCc4[nH]nnc4C3)nn2CC1` [Example 37, 3-chloro-4-(trifluoromethoxy)benzyl 2-(4,5,6,7-tetrahydro-1H-[1,2,3]triazolo[4,5-c]pyridine-5-carbonyl)-7,8-dihydro-4H-pyrazolo[1,5-d][1,4]diazepine-6(5H)-carboxylate] returned an IC50 of 9 nM. This IC50 and that of the compound before are within 1.5-fold of each other.
Take `O=C(OCc1ccc(OC(F)(F)F)cc1)N1CCc2cc(C(=O)N3CCc4[nH]nnc4C3)nn2CC1` [Example 5, [4-(Trifluoromethoxy)phenyl]methyl 2-(1,4,6,7-tetrahydrotriazolo[4,5-c]pyridine-5-carbonyl)-4,5,7,8-tetrahydropyrazolo[1,5-d][1,4]diazepine-6-carboxylate]: 2 nM corresponded to half-maximal inhibition (IC50). This IC50 lies about 4.5-fold lower than the previous one.
To `N#Cc1ccc(COC(=O)N2CCc3cc(C(=O)N4CCc5[nH]nnc5C4)nn3CC2)cc1` [Example 6, 4-Cyanobenzyl 2-(4,5,6,7-tetrahydro-1H-[1,2,3]triazolo[4,5-c]pyridine-5-carbonyl)-7,8-dihydro-4H-pyrazolo[1,5-d][1,4]diazepine-6(5H)-carboxylate] belongs 4 nM; to `COc1ccc(COC(=O)N2CCc3cc(C(=O)N4CCc5[nH]nnc5C4)nn3CC2)c(C)c1` [Example 33, 4-methoxy-2-methylbenzyl 2-(4,5,6,7-tetrahydro-1H-[1,2,3]triazolo[4,5-c]pyridine-5-carbonyl)-7,8-dihydro-4H-pyrazolo[1,5-d][1,4]diazepine-6(5H)-carboxylate], 94 nM.
`O=C(OCc1ccc(OC(F)(F)F)cc1)N1CCc2nc(C(=O)N3CCc4[nH]nnc4C3)nn2CC1` [Example 11, [4-(Trifluoromethoxy)phenyl]methyl 2-(1,4,6,7-tetrahydrotriazolo[4,5-c]pyridine-5-carbonyl)-5,6,8,9-tetrahydro-[1,2,4]triazolo[1,5-d][1,4]diazepine-7-carboxylate] yielded a half-maximal inhibitory concentration (IC50) of 15 nM.
In the case of `O=C(c1cc(OCC2CCOCC2)nc(C2CC2)c1)N1CCc2cc(C(=O)N3CCc4[nH]nnc4C3)nn2CC1` [Example 24, (6-(2-cyclopropyl-6-((tetrahydro-2H-pyran-4-yl)methoxy)isonicotinoyl)-5,6,7,8-tetrahydro-4H-pyrazolo[1,5-d][1,4]diazepin-2-yl)(6,7-dihydro-1H-[1,2,3]triazolo[4,5-c]pyridin-5(4H)-yl)methanone], the IC50 turned out to be 9 nM.
Compound `O=C(OCc1ccc(OCC(F)(F)F)cc1)N1CCc2cc(C(=O)N3CCc4[nH]nnc4C3)nn2CC1` [Example 40, 4-(2,2,2-trifluoroethoxy)benzyl 2-(4,5,6,7-tetrahydro-1H-[1,2,3]triazolo[4,5-c]pyridine-5-carbonyl)-7,8-dihydro-4H-pyrazolo[1,5-d][1,4]diazepine-6(5H)-carboxylate] had a half-inhibitory concentration (IC50) of 17 nM.
To `O=C(CCc1ccc(OC(F)(F)F)cc1)N1CCc2cc(C(=O)N3CCc4[nH]nnc4C3)nn2CC1` [Example 14, 1-[2-(1,4,6,7-tetrahydrotriazolo[4,5-c]pyridine-5-carbonyl)-4,5,7,8-tetrahydropyrazolo[1,5-d][1,4]diazepin-6-yl]-3-[4-(trifluoromethoxy)phenyl]propan-1-one] belongs 14 nM; to `N#Cc1ccc(OCC(=O)N2CCc3cc(C(=O)N4CCc5[nH]nnc5C4)nn3CC2)c(C2CC2)c1` [Example 15, 3-Cyclopropyl-4-(2-oxo-2-(2-(4,5,6,7-tetrahydro-1H-[1,2,3]triazolo[4,5-c]pyridine-5-carbonyl)-7,8-dihydro-4H-pyrazolo[1,5-d][1,4]diazepin-6(5H)-yl)ethoxy)benzonitrile], 11 nM.
The figure for `O=C(OCc1ccccc1)N1CCc2nc(C(=O)N3CCc4[nH]nnc4C3)cn2CC1` [Example 2, Benzyl 2-(1,4,6,7-tetrahydrotriazolo[4,5-c]pyridine-5-carbonyl)-5,6,8,9-tetrahydroimidazo[1,2-d][1,4]diazepine-7-carboxylate] is 2010 nM; for `O=C(OCc1ccc(F)c(F)c1)N1CCc2cc(C(=O)N3CCc4[nH]nnc4C3)nn2CC1` [Example 30, (3,4-difluorophenyl)methyl 2-(1,4,6,7-tetrahydrotriazolo[4,5-c]pyridine-5-carbonyl)-4,5,7,8-tetrahydropyrazolo[1,5-d][1,4]diazepine-6-carboxylate] it is 41 nM.
